The values below come from ChEMBL document CHEMBL6120973 (J Med Chem, 2024).

Some results are limits rather than exact numbers.

The nature of series [1]: Solubility of compound in phosphate buffer at pH 7.4 measured after 24 hrs by HPLC analysis. Type of series: physicochemical.
Series [2] can be described thus: Acute toxicity in male ICR mouse assessed as effect on pathological damage in kidney at 2000 mg/kg, IG measured after 14 days by H and E staining based analysis. Type of series: organism-based. Conditions: in vivo, po, 336 h, time 14 day.
For series [3], the system named is Human immunodeficiency virus 1. The series is described as follows: Antiviral activity against HIV-1 harboring RT K103N/Y181C double mutant infected in human MT4 cells assessed as protection against virus-induced cytopathic effect incubated for 5 days by MTT assay. It counts as functional, organism-based. Conditions: Human immunodeficiency virus 1, MT4, 120 h. For orientation: Protection from cytopathic effect is a common read-out in antiviral testing.

For series [4], the system named is Human immunodeficiency virus 1. The series is described as follows: Antiviral activity against HIV-1 harboring RT L100I mutant infected in human MT4 cells assessed as protection against virus-induced cytopathic effect incubated for 5 days by MTT assay. Particulars: Human immunodeficiency virus 1, MT4, 120 h. Type of series: functional, organism-based.
Another series addresses Cytochrome P450 2D6 (Homo sapiens, UniProt P10635). The series is described as follows: Inhibition of CYP2D6 in human liver microsomes preincubated for 10 mins followed by NADPH addition and measured after 15 mins by LC/MS/MS analysis. (Microsomes from liver hold many membrane-bound enzymes, among them those of drug oxidation.)
Series [5] can be described thus: Acute toxicity in female ICR mouse assessed as effect on pathological damage in spleen at 2000 mg/kg, IG measured after 14 days by H and E staining based analysis. Type of series: organism-based. Particulars: in vivo, po, 336 h, time 14 day.
Series [6] has as its target Voltage-gated inwardly rectifying potassium channel KCNH2 (Homo sapiens, UniProt Q12809). The series is described as follows: Inhibition of human ERG expressed in CHO cells at holding potential of -80 mV by automated patch clamp electrophysiological method. Type of series: toxicity, cell-based.
For another series, the target named is Cytochrome P450 3A4 (Homo sapiens, UniProt P08684). The series is described as follows: Inhibition of CYP3A4 in human liver microsomes using midazolam as substrate preincubated for 10 mins followed by NADPH addition and measured after 15 mins by LC/MS/MS analysis.
Sequence of Cytochrome P450 3A4 (P08684 whole entry): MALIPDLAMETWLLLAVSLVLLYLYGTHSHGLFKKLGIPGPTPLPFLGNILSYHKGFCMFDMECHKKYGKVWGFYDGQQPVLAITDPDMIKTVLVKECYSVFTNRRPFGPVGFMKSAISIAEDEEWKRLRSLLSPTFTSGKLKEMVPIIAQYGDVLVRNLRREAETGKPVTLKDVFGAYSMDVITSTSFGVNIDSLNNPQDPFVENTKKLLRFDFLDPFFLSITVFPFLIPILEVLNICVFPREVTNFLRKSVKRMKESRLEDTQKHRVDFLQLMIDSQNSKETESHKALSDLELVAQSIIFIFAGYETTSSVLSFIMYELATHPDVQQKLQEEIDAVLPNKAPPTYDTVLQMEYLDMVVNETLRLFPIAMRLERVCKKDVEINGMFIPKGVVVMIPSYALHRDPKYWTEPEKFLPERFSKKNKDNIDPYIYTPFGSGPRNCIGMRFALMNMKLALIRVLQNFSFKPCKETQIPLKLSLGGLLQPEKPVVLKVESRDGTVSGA
Series [7] in a line: Acute toxicity in male ICR mouse assessed as effect on pathological damage in liver at 2000 mg/kg, IG measured after 14 days by H and E staining based analysis. Particulars: in vivo, po, 336 h, time 14 day. Type of series: organism-based.
Series [8] in a line: Acute toxicity in male ICR mouse assessed as effect on body weight at 2000 mg/kg, IG measured after 14 days. Type of series: organism-based. Particulars: in vivo, po, 336 h, time 14 day.
Another series concerns the target Cytochrome P450 2C19 (Homo sapiens, UniProt P33261). The series is described as follows: Inhibition of CYP2C19 in human liver microsomes preincubated for 10 mins followed by NADPH addition and measured after 15 mins by LC/MS/MS analysis.
Series [9] relates to Human immunodeficiency virus 1. The series is described as follows: Antiviral activity against HIV-1 harboring RT F227L/V106A double mutant infected in human MT4 cells assessed as protection against virus-induced cytopathic effect incubated for 5 days by MTT assay. Type of series: functional, organism-based. Conditions: Human immunodeficiency virus 1, MT4, 120 h.
Series [10] can be described thus: Cytotoxicity against human MT4 cells assessed as reduction in cell viability measured after 5 days by MTT assay. Conditions: MT4 cells.

Sequence of Cytochrome P450 2D6 (P10635 whole entry): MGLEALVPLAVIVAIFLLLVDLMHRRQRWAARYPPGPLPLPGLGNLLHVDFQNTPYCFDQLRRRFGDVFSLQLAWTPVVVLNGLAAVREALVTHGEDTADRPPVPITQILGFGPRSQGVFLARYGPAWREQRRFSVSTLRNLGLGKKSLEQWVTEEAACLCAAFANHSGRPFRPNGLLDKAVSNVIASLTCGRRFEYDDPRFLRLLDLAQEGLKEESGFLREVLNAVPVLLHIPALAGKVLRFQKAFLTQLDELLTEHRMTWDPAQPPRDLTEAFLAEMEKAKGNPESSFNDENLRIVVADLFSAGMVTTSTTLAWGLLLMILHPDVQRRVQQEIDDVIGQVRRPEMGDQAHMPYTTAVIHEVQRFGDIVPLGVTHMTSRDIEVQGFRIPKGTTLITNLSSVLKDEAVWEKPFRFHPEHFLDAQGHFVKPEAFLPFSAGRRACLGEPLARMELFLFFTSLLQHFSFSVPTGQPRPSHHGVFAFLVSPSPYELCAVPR
Sequence of Voltage-gated inwardly rectifying potassium channel KCNH2 (Q12809 whole entry): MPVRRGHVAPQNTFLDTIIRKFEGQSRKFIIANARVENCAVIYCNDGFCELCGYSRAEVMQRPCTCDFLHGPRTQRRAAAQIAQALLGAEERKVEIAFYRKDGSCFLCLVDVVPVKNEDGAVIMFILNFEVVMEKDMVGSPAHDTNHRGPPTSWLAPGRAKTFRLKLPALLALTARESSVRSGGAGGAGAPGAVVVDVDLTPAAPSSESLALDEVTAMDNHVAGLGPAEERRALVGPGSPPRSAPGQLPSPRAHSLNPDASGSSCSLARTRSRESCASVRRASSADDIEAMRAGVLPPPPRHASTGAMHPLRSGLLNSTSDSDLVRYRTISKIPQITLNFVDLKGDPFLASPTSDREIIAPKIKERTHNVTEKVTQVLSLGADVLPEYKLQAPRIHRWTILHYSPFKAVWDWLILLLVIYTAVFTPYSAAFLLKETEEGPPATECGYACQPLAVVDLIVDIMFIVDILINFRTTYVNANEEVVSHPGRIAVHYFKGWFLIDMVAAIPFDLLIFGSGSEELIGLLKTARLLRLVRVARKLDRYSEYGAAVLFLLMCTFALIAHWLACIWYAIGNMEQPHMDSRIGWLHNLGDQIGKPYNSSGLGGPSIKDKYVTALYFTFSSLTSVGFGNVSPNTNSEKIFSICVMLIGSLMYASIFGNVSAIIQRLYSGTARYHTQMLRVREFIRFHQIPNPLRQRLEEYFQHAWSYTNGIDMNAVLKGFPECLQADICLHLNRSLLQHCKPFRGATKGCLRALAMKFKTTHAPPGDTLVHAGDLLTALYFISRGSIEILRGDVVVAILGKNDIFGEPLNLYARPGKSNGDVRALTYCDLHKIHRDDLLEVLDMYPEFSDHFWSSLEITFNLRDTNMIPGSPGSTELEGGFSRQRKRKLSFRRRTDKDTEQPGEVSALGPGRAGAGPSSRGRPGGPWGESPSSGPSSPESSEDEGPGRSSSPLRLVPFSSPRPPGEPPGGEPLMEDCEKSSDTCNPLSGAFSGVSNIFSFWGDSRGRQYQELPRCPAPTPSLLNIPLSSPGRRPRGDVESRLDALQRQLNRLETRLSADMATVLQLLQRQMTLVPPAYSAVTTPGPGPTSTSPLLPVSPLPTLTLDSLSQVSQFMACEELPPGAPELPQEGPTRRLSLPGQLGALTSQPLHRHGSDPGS
Sequence of Cytochrome P450 2C19 (P33261 whole entry): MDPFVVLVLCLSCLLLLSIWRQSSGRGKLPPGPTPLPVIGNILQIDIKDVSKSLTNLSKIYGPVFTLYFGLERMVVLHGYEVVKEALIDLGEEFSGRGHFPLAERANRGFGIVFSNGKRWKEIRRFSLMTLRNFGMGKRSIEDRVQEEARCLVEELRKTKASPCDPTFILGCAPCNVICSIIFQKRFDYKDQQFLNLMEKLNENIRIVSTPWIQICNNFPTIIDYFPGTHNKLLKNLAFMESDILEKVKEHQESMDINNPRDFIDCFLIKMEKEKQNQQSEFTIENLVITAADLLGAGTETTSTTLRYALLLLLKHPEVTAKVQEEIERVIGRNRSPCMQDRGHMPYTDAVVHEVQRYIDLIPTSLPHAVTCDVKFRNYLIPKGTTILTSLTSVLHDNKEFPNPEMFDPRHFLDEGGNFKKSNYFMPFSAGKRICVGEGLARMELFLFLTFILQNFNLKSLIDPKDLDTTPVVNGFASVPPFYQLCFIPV

As a reminder, the solubility is the concentration that dissolves in the medium under given conditions. In general, EC50 refers to the concentration at which the effect is half-maximal. By IC50 is commonly meant the concentration needed to halve the response being measured. Higher therefore signals weaker potency in that assay. What is called CC50 is the concentration at which the toxic effect on the cells reaches its halfway point. The compound `Cc1cc(-c2ccncc2)cc(C)c1Nc1nc(Nc2ccc(C#N)cc2)ncc1-c1cn[nH]c1` came in with a solubility at 24 h in series [1] of less than 1 µg/mL. Moreover, the Activity result in series [2], in series [5], in series [7] and in series [8] was “Non-toxic” throughout. For the same compound, the EC50 in [3] was 42 nM; in series [4], 9 nM; in series [9], 79 nM. For the same compound, the IC50 at Cytochrome P450 2D6 is more than 50000 nM; in series [6], more than 40000 nM; against Cytochrome P450 3A4, more than 50000 nM; against Cytochrome P450 2C19, more than 50000 nM. Further, the CC50 at 120 h in [10] was more than 273000 nM.
